# “Also recorded” adds a separate entry of the source.
# How the values were obtained:
# pneumococcal strain R6 = assay: Cell growth curves (OD 620 nm) and viability of R6 with peptide; assay type: cell-based, Streptococcus pneumoniae; details: for ability to inhibit R6 growth: peptides at 100 μM added to growing R6 at OD 620 nm of 0.1
# Experimental: (§1) Cell growth curves were performed in the presence or absence of the test reagents as specified. In short, samples were prepared as follows: 1 ml of a pneumococcus culture was placed into 10 ml of prewarmed Semisynthetic (C+Y) medium. The optical density (OD) of the bacteria was monitored at 620 nm until an OD of approximately 0.1 was reached. At this point the test reagents were administered to the samples. The cells were cultured for up to 11 hours at 37° Celsius, and the OD at 620 nm was monitored every hour. A decrease in OD 620 is indicative of cell lysis, an increase is indicative of bacterial growth. No change in optical density indicates growth inhibition.
# To characterize the antibacterial activity of the peptide, pneumococcal strain R6 which is sensitive to penicillin was exposed to 0.1 mM of the peptide having the amino acid sequence of SEQ ID NO:2 at an optical density of 0.01 (bacterial density of 3×10^6 cfu/ml). Bacterial growth as measured by optical density was followed for 11 hours and viability was assessed by plating on blood agar. […] Four hours after the start of the experiment, the control strain grew from 3×10^6 to 1.2×10^7 cfu/ml. In contrast, four hours after addition of the peptide, the viable bacterial number decreased from 3×10^6 to 3×10^4 CFU/ml (10^3-fold lower than the control).
# The fact that the peptide is active in the range below 1 μg/ml places the potency of its antibacterial effect in the same range as conventional antibiotics.
# R6 with no peptide was the control and underwent exponential growth. […] This enhanced activity may result from an improvement in folding of the peptide or greater access to the bacterial target.
# HK mutant = assay: Phenotypes of the mutants: lysis by penicillin, vancomycin, DOC; assay type: cell-based, S. pneumoniae
# Experimental: (§2) Construction of mutations: Insertion duplication mutagenesis was carried out using PCR to generate gene fragments for homologous recombination proximal to the amino terminus of OrfW1, HK or RR as follows:
# (§3) Phenotypes of the mutants: The mutants were assessed for various physiological functions characteristic of pneumococci. This included lysis by penicillin, vancomycin, and the detergent deoxycholate (DOC). Other capabilities tested included ability to undergo natural DNA transformation (Transform) and expression of the LytA protein as assessed by Western blot.
# Orf W1 mutant = assay: as above; assay type: cell-based, S. pneumoniae
# Experimental: as §2, §3
# RR mutant = assay: as above; assay type: cell-based, S. pneumoniae
# Experimental: as §2, §3
# [1] = tested on: loss of function mutants of the ABC transporter and RR/HK; assay: Tolerance of loss of function mutants; assay type: cell-based, S. pneumoniae; details: growth inhibitory concentrations
# Text: As described in Example 6, using insertion duplication mutagenesis, loss of function mutations were obtained in each of the 3 open reading frames of the ABC transporter and each of the two parts of the RR/HK. […] These parallel phenotypes further implicate these topographically close genes in a common pathway.
# Vancomycin is the only antibiotic that maintains efficacy against many strains of highly antibiotic resistant bacteria, such as staphylococci, enterococci and pneumococci. Escape from antibiotic activity of vancomycin has been detected in rare staphylococci and enterococci but not in pneumococci as yet. […] Infect. Dis. J., 12:196-200 (1993); Marton et al., J. Infect. Dis., 163:542-8 (1991); and Bradley et al., Pediatr. Infect. Dis., 14:1037-1041 (1995)]. […] If they created a phenotype which was corrected by exogenous peptide, they may participate in the biological activity of the peptide. For instance, the ABC transporter may transport the peptide and the HK may serve as an extracellular receptor for the peptide which then changes the behavior of the bacteria (i.e., killing) via a RR signal.
# clinical isolate A144 [2] = assay: Cell viability (CFU/ml) one hour after addition; assay type: cell-based, pneumococcus; details: 10×MIC of penicillin, 1×MIC of vancomycin or 0.4 mM peptide
# Text: (§4) Tolerance to penicillin occurs in bacteria that fail to trigger autolysins in response to the drug. […] This is a mechanism of resistance to these drugs and is a serious emerging medical problem. […] However, one pneumococcal strain that fails to lyse and dies slowly in response to both penicillin and vancomycin is the clinical isolate A144. This combination of traits makes A144 recalcitrant to therapy. FIG. 8 compares the activity of penicillin, vancomycin, and the peptide having the amino acid sequence of SEQ ID NO:2 against a classical sensitive strain, R6, and the tolerant strain A144. […] In contrast, strain A144 loses only 0.5 logs of viability in the same time period for all three therapies. […] Thereafter the bacteria grew more slowly than untreated controls.
# [3] = tested on: pneumococcus R6 in medium lacking lysine; assay: Phenotypic tolerance: lysis under starvation conditions; assay type: cell-based; details: for lysis response of non-growing bacteria: 10×MIC of penicillin and/or 0.5 mM peptide
# Text: When bacteria grow slowly or stop growing due to nutrient deprivation, they become tolerant to antibiotics of all classes. […] This prolongs the course of antibiotics needed to treat these infections. For instance, many weeks of therapy are required to treat endocarditis and osteomyelitis secondary to slowly growing bacteria. An in vitro example of phenotypic tolerance is shown in FIG. 10 where pneumococcus R6 has been transferred at time 0 to a medium lacking the essential amino acid lysine. Penicillin was added 5 min after the transfer. […] This same response is seen with the peptide having the amino acid sequence of SEQ ID NO:2.
# clinical isolate F79 = assay: Lysis of tolerant clinical isolate; assay type: cell-based, pneumococcus; details: 10×MIC of penicillin and/or 0.5 mM peptide
# Experimental: (§5) FIGS. 11A-11B show the effects of 10×MIC of penicillin and/or 0.5 mM of the peptide having the amino acid sequence of SEQ ID NO:2 on the lysis of clinical isolate F79 cells (FIG. 11A) and HK mutant VanS cells (FIG. 11B).
# (§6) F79 is a natural isolate of pneumococcus with mutations in the HK and the ABC transporter genes as determined by SSCP (see Example 11).
# HK mutant Van S = assay: Lysis of HK mutant; assay type: cell-based, pneumococcus; details: 10×MIC of penicillin and/or 0.5 mM peptide
# Experimental: as §5, §6
# [4] = tested on: leucine deprived R6 cells; assay: Stringent response: lysis after leucine deprivation; assay type: cell-based, S. pneumoniae
# Experimental: P27 and the stringent response mechanism: The stringent response is believed to prevent the death pathway. To clarify the relationship of the stringent response to P27 activity, protein synthesis of R6 was inhibited by leucine deprivation and the effect of P27 was monitored (FIG. 19). […] The minimum concentration of penicillin required to cause penicillin dependent autolysis was equal to its MIC ([…]).
# mutant SPSJ01 = assay: Screen of library of loss of function mutants for antibiotic tolerance; assay type: cell-based, pneumococcus
# Text: To detect genes that are part of the trigger pathway of the pneumococcal autolysin a library of loss of function mutants has been created, which was screened for antibiotic tolerance [Pearce et al., Mol. Microbiol., 9:1037-1050 (1993)]. […] It is reasonable to assume that this two component system represents the start of the pneumococcal autolytic trigger pathway, functioning as a relay station reacting to cell density signals or the binding of antibiotics to penicillin binding proteins. Similar to the enterococcal histidine kinase VanSB, the pneumococcal VncS works most likely as a kinase/phosphatase (see Example 1, above).
# [5] = tested on: autolysin deficient strain Lyt 4-4; assay: Growth and killing of autolysin deficient strain; assay type: cell-based, Streptococcus pneumoniae; details: Lyt 4-4, 0.1 mM peptide
# Experimental: The addition of the additives were made at time “0” hours. The strain of bacteria cultured was the Lyt-4-4 strain of Streptococcus pneumoniae which harbors a mutation leading to the loss of LytA activity. The peptide having the amino acid sequence of SEQ ID NO:2 was added as indicated at a concentration of 0.1 mM. Lyt-4-4 lacks active autolysin LytA and is therefore tolerant to penicillin treatment.
# as §1
# This antibacterial effect was also demonstrable in bacteria mutated so as to prevent autolysis by point mutation in the autolysin, as in the autolysin deficient strain Lyt 4-4. […]
# Lyt 4-4 = assay: Loss of chain formation (morphology); assay type: cell-based, Streptococcus pneumoniae; details: Lyt 4-4, 0.5 mM peptide in the medium
# Text: Loss of chain formation is a measure of antibacterial activity independent of autolysin.
# Strains of pneumococcus that are tolerant to penicillin, such as Lyt 4-4, grow in long chains as compared to the diplococcal morphology of wild type pneumococci. FIG. 6A illustrates these chains, which extend to 30-50 bacteria in length.
# P27 is capable of triggering different autolytic pathways: To identify the relationship between P27 and the activation of the autolysin LytA, the bactericidal effect of the peptide on the pneumococcal mutant Lyt-4-4 (which is deficient in the major autolysin), was investigated. […] Compared to the diplococcal morphology of wild type pneumococci, pneumococci lacking an active autolysin grow in long chains.
# RR/HK mutants = assay: Antibacterial activity of the peptide in the mutants; assay type: cell-based, S. pneumoniae; details: peptide added exogenously
# Text: (§7) To test this hypothesis the ability of the peptide having the amino acid sequence of SEQ ID NO:2 to maintain antibacterial activity in the mutants was examined. […] Furthermore, bacteria which are tolerant by virtue of phenotypic tolerance due to slow growth rate or mutations in genes other than the RR/HK will be susceptible to the antibacterial effect of the peptide having the amino acid sequence of SEQ ID NO:2.
# mutant in ORF W1 = assay: as above; assay type: cell-based, S. pneumoniae; details: mutant in ORF W1, peptide added from the outside
# Text: as §7
# clinical isolate A144 [6] = assay: Growth of the clinical isolate; assay type: cell-based, pneumococcus; details: 0.1 mM peptide added early in the growth cycle
# Text: as §4
molecule,measurement,setting,value
"CC1(C)S[C@@H]2[C@H](NC(=O)Cc3ccccc3)C(=O)N2[C@H]1C(=O)O [penicillin, benzylpenicillin]",time to lysis of R6,"pneumococcal strain R6; growing R6, penicillin at 10×MIC",within one hour
same,Lysis by,HK mutant,tolerant
same,Lysis by,Orf W1 mutant,tolerant
same,Lysis by,RR mutant,sensitive
same,tolerance (lysis and death),[1],failed to lyse and die
same,loss of viability,clinical isolate A144 [2],0.5 logs
same,viability of non-growing bacteria,[3]; 10×MIC of penicillin,unaffected
same,lysis response of non-growing bacteria,[3],only a minimal response
same,lysis of F79,clinical isolate F79,tolerant
same,lysis of Van S,HK mutant Van S,tolerance
same,lysis of R6 under leucine deprivation,"[4]; 10×MIC of penicillin or vancomycin, 0.2 mM P27, or combination",neither the addition of 10×the MIC of penicillin or vancomycin nor the addition of 0.2 mM P27 resulted in lysis
same,minimum concentration of penicillin required to cause penicillin dependent autolysis,"[4]; leucine deprived R6, in combination with P27",0.1 mg/mL
same,death in the presence of antibiotic,mutant SPSJ01,failed to die
LADKRPARDYN (listed as Streptococcus pneumoniae) [Peptide 5],ability to inhibit R6 growth,pneumococcal strain R6,Exponential growth equal to untreated bacteria
MEFMRKEFHNVLSSGQLLADKRPARDYN (listed as Streptococcus pneumoniae) [SEQ ID NO:12],antibacterial activity against R6,pneumococcal strain R6,no antibacterial activity
MRKEFHNVLSAGQLLADKRPARDYN [Peptide 3],ability to inhibit R6 growth,pneumococcal strain R6,greatly enhanced antibacterial effect
MRKEFHNVLSSGQL (listed as Streptococcus pneumoniae) [Peptide 4],ability to inhibit R6 growth,pneumococcal strain R6,Exponential growth equal to untreated bacteria
MRKEFHNVLSSGQLLADKRPARDAN [Peptide 2],ability to inhibit R6 growth,pneumococcal strain R6,greatly decreased anti-bacterial activity
MRKEFHNVLSSGQLLADKRPARDYN (listed as Streptococcus pneumoniae) [Peptide 1],Bacterial growth as measured by optical density,"pneumococcal strain R6; R6, 0.1 mM peptide, followed for 11 hours",completely inhibited growth
same,"viable number, fold lower than the control","pneumococcal strain R6; R6, 0.1 mM peptide, four hours",10^3 fold
same,viable bacterial number,"pneumococcal strain R6; R6, 0.1 mM peptide, four hours after addition, start 3×10^6",3×10^4 CFU/ml
same,lysis,"pneumococcal strain R6; R6, 0.1 mM peptide, listed as SEQ ID NO:2",without substantial cell lysis; also recorded: No lysis was detected
same,minimum effective concentration (MEC),"pneumococcal strain R6; R6, converted with molecular weight 2940",0.15 to 0.3 µg/mL
same,minimum effective concentration,"pneumococcal strain R6; R6, optical density over 4 hours",50 to 100 nM
same,dose dependence of antibacterial activity,"pneumococcal strain R6; R6, various amounts of peptide, 4 hours",dose dependent antibacterial activity
same,ability to inhibit R6 growth,pneumococcal strain R6,significant delay in the onset of bacterial growth
same,bactericidal activity,[5],demonstrable
same,chain formation,Lyt 4-4; listed as SEQ ID NO.2,dissolution of the chains
same,chain formation,Lyt 4-4; listed as SEQ ID NO:2,reversion of the chains to diplococci
same,growth inhibition,RR/HK mutants,did not function to inhibit the growth
same,growth inhibition,mutant in ORF W1,not able to inhibit growth
same,loss of viability,clinical isolate A144 [2],0.5 logs
same,growth of strain A144,clinical isolate A144 [6],significantly inhibits the growth of strain A144 for 4 hours
same,lysis response of non-growing bacteria,[3],same response
same,lysis of Van S,HK mutant Van S,not responsive
deoxycholate [DOC],Lysis by,HK mutant,yes
same,Lysis by,Orf W1 mutant,no
same,Lysis by,RR mutant,yes
